{
  "source": "patent US9290464B2",
  "about": "(priority 2010, dated 2016)",
  "key": {"MPTP-induced mouse [1]": {"system": "MPTP-induced mouse", "assay": "Tail suspension test in MPTP-induced mouse", "format": "in vivo, C57BL/6 mice", "conditions": "FIG. 3", "procedure": "The tail suspension test was performed to measure the extent of causation of behavioral loss according to the administration of MPTP and medicines. The TST was performed in such a manner that 7 days after the compounds described above are respectively administered to the three groups, a circular stainless steel stick with a width of 1 cm was fixed to a cage with a width of 16 cm and a height of 40 cm located at a height of 35 cm and whose left and right sides were covered by black wood. The movement time of the mice was measured for 6 minutes in a second unit, and thus the efficacies of the compounds were evaluated."}, "caspase 3": {"system": "caspase 3", "assay": "Activity of caspase 3/7 (Apo-ONE) in MPP+-treated cells", "format": "cell-based, human", "conditions": "2 mM MPP+, 24 hours; CBI 1, 5, 10 and 50 nM, rasagiline 50 nM; FIG. 18", "quoted_text": "SH-SY5Y cells were incubated in a 96-well plate at a concentration of 5×10^5 cells/well under the same conditions as described above, the cells were treated with 2 mM of MPP^+ and CBI (1, 5, 10 and 50 nM) or rasagiline (50 nM), and the resulting cells were incubated for 24 hours. Subsequently, 100 μl of Apo-ONE caspase 3/7 reagent (Promega, G7790) was added thereto and mixed therewith, and the resultant was further incubated for 4 hours. After the incubation was terminated, fluorescence was measured at an excitation wavelength of 495 nm and an emission wavelength of 521 nm by using a fluorescence plate reader (GeminiXPS, Molecular Devices)."}, "dopamine transporter": {"system": "dopamine transporter", "assay": "Dopamine transporter binding assay ([125I]PE2I) on striatum sections of MPTP-induced monkey", "format": "in vivo, Macaque monkeys", "conditions": "FIG. 2"}, "MPTP-induced mouse [2]": {"system": "MPTP-induced mouse", "assay": "Concentration of dopamine in striatum of MPTP-induced mouse (HPLC)", "format": "in vivo, C57BL/6 mice", "conditions": "1 mg/kg oral once a day, FIG. 4", "procedure": "7 days after the compounds described above are respectively administered to the three groups, the mice in each group were sacrificed by cervical dislocation and brain tissues were immediately taken out of the mice. Striatum was collected from the brain tissue, 0.5 ml of a HPLC assay diluent (0.1 M HClO4, 0.1 mM EDTA) was added to the striatum, and a tissue homogenate was then prepared using an ultrasonic processor. The homogenate was centrifuged at 12,000 rpm for 15 minutes, and the supernatant was filtered with a nitrocellulose filter (0.2 um, Millipore). For HPLC analysis, HR-80 column (80 mm×4.6 mm, particle size: 3 μm ESA, USA) was used, the flow rate of a mobile phase (0.07 M monobasic sodium phosphate, 1 mM sodium octasulfonic acid, 0.1 uM EDTA, 5% acetonitrile, pH 3.2) was maintained at 0.7 ml/min, and the electrode potential of an electrochemical detector (Coulochem III, ESA, USA) was at E1=−100 mV, E2=350 mV."}, "SOD": {"system": "SOD", "assay": "Activity of SOD in striatum and substantia nigra of mouse", "format": "in vivo, C57BL/6 mice", "conditions": "1 mg/kg oral for 8 days, no neurotoxin; FIG. 22", "quoted_text": "Next day after the last day of administration, striatum and substantia nigra tissues were taken out of each group of mice. Cell extracts were obtained from the cells of the tissues, and thus the activities of the catalase, SOD and GPx were measured."}, "[3]": {"system": "MAO-B-deficient human neuroblastoma SH-SY5Y cells", "assay": "Reactive oxygen species (DCF-DA staining) in MPP+-treated cells", "format": "cell-based", "conditions": "2 mM MPP+, 50 nM, 24 hours; FIGS. 19 and 20", "procedure": "In this embodiment, MAO-B-deficient human neuroblastoma SH-SY5Y cells (Korean Cell Line Bank) were used. The cells were cultured in a DMEM medium at 37° C. with 5% of CO2 for 24 hours. The cultured cells were divided into three groups, 2 mM of MPP^+ was added to each group, one of the three groups was treated with 50 nM of CBI, one of the other two groups was treated with 50 nM of rasagiline, and the three groups were further incubated with 5% of CO2 at 37° C. for 24 hours. The group with only MPP^+ added thereto was incubated under the same conditions as described above. Subsequently, the cells were stained with 2,7-dichlorofluorescein diacetate (DCF-DA), which is a fluorescence dye capable of detecting reactive oxygen species, and then observed using a confocal microscope (Nikon Co., Japan)."}, "NGF": {"system": "NGF", "assay": "Amount of NGF mRNA in striatum of mouse without neurotoxin", "format": "in vivo, C57BL/6 mice", "conditions": "1 mg/kg oral once a day for 8 days each; FIG. 15", "quoted_text": "Next day after the last day of administration, striatum and substantia nigra tissues were taken out of each group of mice. mRNA was extracted from the cell of the taken tissue, and thus the amount of mRNA of NGF was measured by real-time RT-PCR."}, "malonate-induced mouse": {"system": "malonate-induced mouse", "assay": "Striatum damage in malonate-induced mouse (TTC staining)", "format": "in vivo, ICR mice", "conditions": "5 mg/kg i.p., five times; TTC staining 3 days after malonate; FIGS. 7 and 8", "procedure": "5 ml/kg of equithesin was administered to each mouse via intraperitoneal injection to be anesthetized, two levelers of a stereotactic instrument were set at 0 mm from both external auditory canals, and the skull of the mouse was perforated in the stereotactic instrument. 0.2 mg/ml of ascorbic acid was used as a control, and 2.4 umole/2 of malonate was injected into a lesion group and a compound treatment group 0.5 mm forward (AP) and 1.2 mm sideward from striatum on the right side (bregma) and 3.1 mm downward from dura matter by using a Hamilton syringe (10 μl, 26G needle) at a rate of 1 uL/min. The groups administered with malonate were divided into two groups, and 0.5 ml/kg of excipient (n=12) and 5 mg/kg of CBI (n=14) were respectively administered to the two groups via intraperitoneal injection 2 hours before an operation and administered again 1 hour, 1 day, 2 days and 3 days after the operation, i.e., total five times. Malonate was injected into striatum of the mouse, the mouse was sacrificed after 3 days, and the brain was taken out of the mouse to prepare a section. Thereafter, the section was stained with 2,3,5-triphenyltetrazolium chloride (TTC)."}, "Bcl-xL": {"system": "Bcl-xL", "assay": "Amount of Bcl-xL protein by western blotting in apoptosis-induced cells", "format": "cell-based, human", "conditions": "serum-free medium, 24 hours; FIG. 11", "text": "Meanwhile, a variety of signal transduction proteins are involved in a process for mediating or inhibiting apoptosis, and representative examples thereof include Bcl-2 gene family proteins (Journal of Bioenergetics and Biomembranes, 37:179-190 (2005); J. Cell Mol. Med., 7:249-257 (2003); Genes and Development, 13:1899-1911 (1999)). Thus, 0.1, 1 and 10 of CBI or 0.1, 1 and 10 of rasagiline were respectively added to the apoptosis-induced cells as described above, the resulting cells were further incubated in 5% of CO2 at 37° C. for 24 hours, mRNA was extracted from the cultured cells or a cell extract was obtained therefrom, and thus the amount of Bcl-2 mRNA and the amounts of Bcl-2 and Bcl-xL proteins were measured. The amount of Bcl-2 mRNA was measured by real-time RT-PCR, and the amounts of Bcl-2 and Bcl-xL proteins were measured by western blotting.\nFor western blotting, the SH-SY5Y cells were lysed with RIPA buffer (50 mM Tris-Cl pH 7.4, 1% NP-40, 0.25% sodium deoxycholate, 0.1% SDS, 150 mM NaCl, 1 mM EDTA) and then centrifuged to obtain a cell extract. […]"}},
  "data": [
    {"smiles": "NC(=O)OCc1cc(-c2ccc(OCc3ccccc3)cc2)no1", "note": "[CBI, carbamic acid 3-(4-benzyloxy-phenyl)-isoxazole-5-yl methylester]", "values": [
      {"measurement": "behavioral restoration in tail suspension test compared with rasagiline group", "setting": "MPTP-induced mouse [1]; 1 mg/kg oral each", "result": "excellent capability of behavioral restoration"},
      {"measurement": "behaviors in tail suspension test", "setting": "MPTP-induced mouse [1]; 1 mg/kg oral once a day after MPTP 30 mg/kg i.p. x 4 days", "result": "the same extent of behaviors as those of normal mice"},
      {"measurement": "activity of caspase 3", "setting": "caspase 3", "result": "reduced"},
      {"measurement": "dopamine transporters in medial striatum and caudal striatum", "setting": "dopamine transporter; 1 mg/kg oral for 4 weeks after MPTP", "result": "a large number of dopamine transporters"},
      {"measurement": "amount of dopamine transporters compared with rasagiline group", "setting": "dopamine transporter; same amount (1 mg/kg) of rasagiline", "result": "significantly larger amount of dopamine transporters"},
      {"measurement": "restoration of the concentration of dopamine in striatum compared with normal mice", "setting": "MPTP-induced mouse [2]", "result": "about 70%"},
      {"measurement": "activity of the SOD", "setting": "SOD", "result": "no significant change"},
      {"measurement": "reactive oxygen species", "setting": "[3]", "result": "significantly decreased"},
      {"measurement": "expression of NGF in the striatum compared with rasagiline group", "setting": "NGF", "result": "significantly higher"},
      {"measurement": "damaged regions of the striatum induced by malonate", "setting": "malonate-induced mouse", "result": "significantly reducing damaged regions of the striatum"},
      {"measurement": "amount of Bcl-xL relative to control", "setting": "Bcl-xL", "result": "larger than that in the control"}
    ]}
  ]
}
